Measured values reported in ChEMBL document CHEMBL1201862, “PubChem BioAssay data set” (2004).
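Briefly, cells in 96-well plates were exposed to five compound concentrations for 48 h, and endpoints were estimated by linear interpolation. GI50 = concentration required for 50% inhibition of growth.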 Active and inactive are the calls of the source. No stated cut-off is given here; in the data, active = GI50 up to about 1.1 µM and inactive = higher.

Assays:
Assay in all cases: inhibition of tumour cell growth, NCI panel, 48 h
[1] = system: RXF 393
[2] = system: DU-145
[3] = system: UACC-257
[4] = system: A549
[5] = system: U-251
[6] = system: HL-60
[7] = system: BT-549
[8] = system: K562
[9] = system: IGROV-1
[10] = system: HCT-15
[11] = system: A498
[12] = system: MDA-MB-435
[13] = system: NCI-H460
[14] = system: SK-MEL-28
[15] = system: MCF7
[16] = system: SF-268
[17] = system: NCI-H226
[18] = system: MDA-MB-231
[19] = system: LOX IMVI
[20] = system: CCRF-CEM
[21] = system: SN12C
[22] = system: SK-MEL-5
[23] = system: SNB-19
[24] = system: NCI-H522
[25] = system: SF-295
[26] = system: SR
[27] = system: 786-0
[28] = system: COLO 205
[29] = system: OVCAR-3
[30] = system: TK-10
[31] = system: Malme-3M
[32] = system: UO-31
[33] = system: ACHN
[34] = system: HCC 2998
[35] = system: OVCAR-5
[36] = system: T47D
[37] = system: HT-29
[38] = system: SF-539
[39] = system: HCT-116
[40] = system: NCI-H23
[41] = system: NCI/ADR-RES
[42] = system: SK-MEL-2
[43] = system: MDA-N
[44] = system: SK-OV-3
[45] = system: SW-620
[46] = system: KM12
[47] = system: UACC-62
[48] = system: MOLT-4
[49] = system: HOP-92
[50] = system: Hs-578T
[51] = system: HOP-62
[52] = system: EKVX
[53] = system: OVCAR-4
[54] = system: RPMI-8226
[55] = system: CAKI-1
[56] = system: OVCAR-8
[57] = system: PC-3
[58] = system: M14
[59] = system: SNB-75

CCOC(=O)N/N=C(/OCC)c1ccccc1
GI50 [1]: > 100 µM (inactive)
GI50 [2]: > 100 µM (inactive)
GI50 [3]: > 100 µM (inactive)
GI50 [4]: > 100 µM (inactive)
GI50 [5]: > 100 µM (inactive)
GI50 [6]: > 100 µM (inactive)
GI50 [7]: > 100 µM (inactive)
GI50 [8]: > 100 µM (inactive)
GI50 [9]: > 100 µM (inactive)
GI50 [10]: > 100 µM
GI50 [11]: > 100 µM (inactive)
GI50 [12]: > 100 µM (inactive)
GI50 [13]: > 100 µM (inactive)
GI50 [14]: > 100 µM (inactive)
GI50 [15]: > 100 µM (inactive)
GI50 [16]: > 100 µM (inactive)
GI50 [17]: > 100 µM (inactive)
GI50 [18]: > 100 µM (inactive)
GI50 [19]: > 100 µM (inactive)
GI50 [20]: > 100 µM (inactive)
GI50 [21]: > 100 µM (inactive)
GI50 [22]: > 100 µM (inactive)
GI50 [23]: > 100 µM (inactive)
GI50 [24]: > 100 µM (inactive)
GI50 [25]: > 100 µM (inactive)
GI50 [26]: > 100 µM (inactive)
GI50 [27]: > 100 µM (inactive)
GI50 [28]: > 100 µM (inactive)
GI50 [29]: > 100 µM (inactive)
GI50 [30]: > 100 µM (inactive)
GI50 [31]: > 100 µM (inactive)
GI50 [32]: > 100 µM (inactive)
GI50 [33]: > 100 µM (inactive)
GI50 [34]: > 100 µM (inactive)
GI50 [35]: > 100 µM (inactive)
GI50 [36]: > 100 µM (inactive)
GI50 [37]: > 100 µM (inactive)
GI50 [38]: > 100 µM (inactive)
GI50 [39]: > 100 µM (inactive)
GI50 [40]: > 100 µM (inactive)
GI50 [41]: > 100 µM (inactive)
GI50 [42]: > 100 µM (inactive)
GI50 [43]: > 100 µM (inactive)
GI50 [44]: > 100 µM (inactive)
GI50 [45]: > 100 µM (inactive)
GI50 [46]: > 100 µM (inactive)
GI50 [47]: > 100 µM (inactive)
GI50 [48]: > 100 µM (inactive)
GI50 [49]: > 100 µM (inactive)
GI50 [50]: > 100 µM (inactive)
GI50 [51]: > 100 µM (inactive)
GI50 [52]: > 100 µM (inactive)
GI50 [53]: > 100 µM (inactive)
GI50 [54]: > 100 µM (inactive)
GI50 [55]: > 100 µM (inactive)
GI50 [56]: > 100 µM (inactive)

CC(C)C[C@@H](NC(=O)[C@@H](Cc1cccc2ccccc12)NC(=O)N1CCOCC1)B(O)O
GI50 [2]: > 100 µM (inactive)
GI50 [3]: > 100 µM (inactive)
GI50 [4]: > 100 µM (inactive)
GI50 [5]: > 100 µM (inactive)
GI50 [6]: 38.7 µM (inactive)
GI50 [7]: 36.3 µM (inactive)
GI50 [8]: 57.9 µM (inactive)
GI50 [9]: > 100 µM (inactive)
GI50 [10]: > 100 µM
GI50 [11]: 31 µM (inactive)
GI50 [12]: 20.8 µM (inactive)
GI50 [13]: > 100 µM (inactive)
GI50 [14]: 25.2 µM (inactive)
GI50 [16]: 61.5 µM (inactive)
GI50 [17]: 18 µM (inactive)
GI50 [18]: 50.5 µM (inactive)
GI50 [19]: 54.6 µM (inactive)
GI50 [21]: 96.2 µM (inactive)
GI50 [23]: > 100 µM (inactive)
GI50 [57]: > 100 µM (inactive)
GI50 [26]: 27 µM (inactive)
GI50 [28]: 48.4 µM (inactive)
GI50 [29]: 29.4 µM (inactive)
GI50 [30]: 31.9 µM (inactive)
GI50 [32]: > 100 µM (inactive)
GI50 [33]: 66.1 µM (inactive)
GI50 [34]: > 100 µM (inactive)
GI50 [35]: 75.3 µM (inactive)
GI50 [36]: 58.2 µM (inactive)
GI50 [37]: 59.4 µM (inactive)
GI50 [38]: 43.4 µM (inactive)
GI50 [39]: 33.2 µM (inactive)
GI50 [40]: 51.2 µM (inactive)
GI50 [41]: > 100 µM (inactive)
GI50 [58]: 28.2 µM (inactive)
GI50 [42]: 37 µM (inactive)
GI50 [43]: 20.7 µM (inactive)
GI50 [46]: > 100 µM (inactive)
GI50 [47]: 63.1 µM (inactive)
GI50 [48]: 31.5 µM (inactive)
GI50 [49]: 37.1 µM (inactive)
GI50 [50]: 40.5 µM (inactive)
GI50 [51]: > 100 µM (inactive)
GI50 [53]: > 100 µM (inactive)
GI50 [54]: 32.5 µM (inactive)
GI50 [55]: 72.8 µM (inactive)
GI50 [56]: > 100 µM (inactive)

Cc1cn(C2CC(N=[N+]=[N-])C(C(=O)O)O2)c(=O)[nH]c1=O (stereo not drawn)
GI50 [1]: > 100 µM (inactive)
GI50 [2]: > 100 µM (inactive)
GI50 [3]: > 100 µM (inactive)
GI50 [4]: > 100 µM (inactive)
GI50 [5]: > 100 µM (inactive)
GI50 [6]: > 100 µM (inactive)
GI50 [7]: > 100 µM (inactive)
GI50 [8]: > 100 µM (inactive)
GI50 [9]: > 100 µM (inactive)
GI50 [10]: > 100 µM
GI50 [11]: > 100 µM (inactive)
GI50 [12]: > 100 µM (inactive)
GI50 [13]: > 100 µM (inactive)
GI50 [59]: > 100 µM (inactive)
GI50 [15]: > 100 µM (inactive)
GI50 [16]: > 100 µM (inactive)
GI50 [17]: > 100 µM (inactive)
GI50 [18]: > 100 µM (inactive)
GI50 [20]: > 100 µM (inactive)
GI50 [21]: > 100 µM (inactive)
GI50 [22]: < 0.01 µM (active)
GI50 [23]: > 100 µM (inactive)
GI50 [24]: > 100 µM (inactive)
GI50 [57]: > 100 µM (inactive)
GI50 [26]: > 100 µM (inactive)
GI50 [27]: > 100 µM (inactive)
GI50 [28]: > 100 µM (inactive)
GI50 [29]: > 100 µM (inactive)
GI50 [30]: > 100 µM (inactive)
GI50 [31]: > 100 µM (inactive)
GI50 [32]: > 100 µM (inactive)
GI50 [33]: > 100 µM (inactive)
GI50 [34]: > 100 µM (inactive)
GI50 [35]: > 100 µM (inactive)
GI50 [37]: > 100 µM (inactive)
GI50 [38]: > 100 µM (inactive)
GI50 [39]: > 100 µM (inactive)
GI50 [40]: > 100 µM (inactive)
GI50 [41]: > 100 µM (inactive)
GI50 [58]: > 100 µM (inactive)
GI50 [42]: > 100 µM (inactive)
GI50 [43]: > 100 µM (inactive)
GI50 [44]: > 100 µM (inactive)
GI50 [45]: > 100 µM (inactive)
GI50 [46]: > 100 µM (inactive)
GI50 [47]: > 100 µM (inactive)
GI50 [48]: > 100 µM (inactive)
GI50 [49]: > 100 µM (inactive)
GI50 [50]: > 100 µM (inactive)
GI50 [51]: > 100 µM (inactive)
GI50 [52]: > 100 µM (inactive)
GI50 [53]: > 100 µM (inactive)
GI50 [54]: > 100 µM (inactive)
GI50 [55]: > 100 µM (inactive)
GI50 [56]: > 100 µM (inactive)
